The text below walks through data of US20230257347A1 (priority 2020, published 2023).

Experiment [1] concerns the target T1, Muscarinic acetylcholine Receptor M1 (CHRM1) (Homo sapiens, UniProt P11229).
T1 sequence (P11229 1-460): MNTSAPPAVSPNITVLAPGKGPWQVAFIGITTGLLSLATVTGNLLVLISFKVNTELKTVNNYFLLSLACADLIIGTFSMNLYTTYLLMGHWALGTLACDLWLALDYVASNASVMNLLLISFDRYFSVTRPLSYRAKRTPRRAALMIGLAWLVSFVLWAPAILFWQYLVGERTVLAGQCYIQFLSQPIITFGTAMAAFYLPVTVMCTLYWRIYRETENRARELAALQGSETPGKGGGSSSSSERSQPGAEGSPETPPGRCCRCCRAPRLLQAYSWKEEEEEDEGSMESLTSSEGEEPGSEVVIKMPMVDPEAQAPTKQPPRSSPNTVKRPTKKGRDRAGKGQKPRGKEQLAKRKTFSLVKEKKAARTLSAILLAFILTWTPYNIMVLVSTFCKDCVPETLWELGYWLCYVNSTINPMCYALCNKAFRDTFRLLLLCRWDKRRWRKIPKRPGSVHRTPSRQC
The experiment in a line: cell-based.

A further experiment concerns the target T2, human 5-HT2A (Homo sapiens, UniProt P28223).
T2 construct: expressed in transfected cells; host or cells: HEK-293
In words: 5-HT2A agonist effect measured by HTRF as changes in IP1, HEK-293 cells. It counts as cell-based. Conditions: 3.0E-05 M; control 10 μM serotonin; 30 min at 37° C.; duplicate averaged. The method, then:
Potential agonist effects of BK-5F-NM-AMT, BK-5F-NM-AMT, and BK-5F-NM-AMT at 5-HT2A receptors was measured by HTRF as changes in IPl. The effects were measured using human 5-HT2A expressed in HEK-293 cells, based on methods reported in Porter et al. British Journal of Pharmacology, 1999. 128(1), 13-20. Incubation was 30 min at 37° C. 10 μM serotonin was used as a positive control. The tryptamine derivatives were each tested at six concentrations from 3.0E-10 to 3.0E-05 M using log steps. All assays were performed in duplicate with results averaged.
In general terms: In TR-FRET formats the signal depends on donor and acceptor labels being close together.

The target in experiment [2] is Opioid Receptor Mu (OPRM1) (Homo sapiens, UniProt P35372). The experiment in a line: cell-based.
Opioid Receptor Mu (OPRM1), sequence (P35372 whole entry): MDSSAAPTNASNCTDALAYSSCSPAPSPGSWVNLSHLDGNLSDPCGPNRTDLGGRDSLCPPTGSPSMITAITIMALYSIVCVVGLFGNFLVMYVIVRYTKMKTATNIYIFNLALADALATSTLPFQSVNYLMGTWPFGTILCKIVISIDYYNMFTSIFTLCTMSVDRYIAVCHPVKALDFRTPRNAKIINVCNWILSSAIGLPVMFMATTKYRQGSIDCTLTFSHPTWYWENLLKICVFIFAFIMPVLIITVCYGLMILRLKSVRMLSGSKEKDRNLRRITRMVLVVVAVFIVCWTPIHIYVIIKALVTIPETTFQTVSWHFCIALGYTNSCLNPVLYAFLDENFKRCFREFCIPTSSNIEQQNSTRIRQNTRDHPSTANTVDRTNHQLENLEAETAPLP
Another experiment concerns the target T3, Cyclooxygenase 1 (COX1) (Homo sapiens, UniProt P23219).
T3 construct: purchased BPS Bioscience
The experiment in a line: Enzymatic assay, COX1. It counts as biochemical.

Experiment [3] deals with T4, N-methyl-D-aspartate (NMDA) Glutamate Receptor 1A/2B (NMDAR (1A/2B)) (Homo sapiens, UniProt Q05586+Q13224).
T4 construct: expressed in transfected cells
T4 sequence (Q13224 27-1484, other chains not shown): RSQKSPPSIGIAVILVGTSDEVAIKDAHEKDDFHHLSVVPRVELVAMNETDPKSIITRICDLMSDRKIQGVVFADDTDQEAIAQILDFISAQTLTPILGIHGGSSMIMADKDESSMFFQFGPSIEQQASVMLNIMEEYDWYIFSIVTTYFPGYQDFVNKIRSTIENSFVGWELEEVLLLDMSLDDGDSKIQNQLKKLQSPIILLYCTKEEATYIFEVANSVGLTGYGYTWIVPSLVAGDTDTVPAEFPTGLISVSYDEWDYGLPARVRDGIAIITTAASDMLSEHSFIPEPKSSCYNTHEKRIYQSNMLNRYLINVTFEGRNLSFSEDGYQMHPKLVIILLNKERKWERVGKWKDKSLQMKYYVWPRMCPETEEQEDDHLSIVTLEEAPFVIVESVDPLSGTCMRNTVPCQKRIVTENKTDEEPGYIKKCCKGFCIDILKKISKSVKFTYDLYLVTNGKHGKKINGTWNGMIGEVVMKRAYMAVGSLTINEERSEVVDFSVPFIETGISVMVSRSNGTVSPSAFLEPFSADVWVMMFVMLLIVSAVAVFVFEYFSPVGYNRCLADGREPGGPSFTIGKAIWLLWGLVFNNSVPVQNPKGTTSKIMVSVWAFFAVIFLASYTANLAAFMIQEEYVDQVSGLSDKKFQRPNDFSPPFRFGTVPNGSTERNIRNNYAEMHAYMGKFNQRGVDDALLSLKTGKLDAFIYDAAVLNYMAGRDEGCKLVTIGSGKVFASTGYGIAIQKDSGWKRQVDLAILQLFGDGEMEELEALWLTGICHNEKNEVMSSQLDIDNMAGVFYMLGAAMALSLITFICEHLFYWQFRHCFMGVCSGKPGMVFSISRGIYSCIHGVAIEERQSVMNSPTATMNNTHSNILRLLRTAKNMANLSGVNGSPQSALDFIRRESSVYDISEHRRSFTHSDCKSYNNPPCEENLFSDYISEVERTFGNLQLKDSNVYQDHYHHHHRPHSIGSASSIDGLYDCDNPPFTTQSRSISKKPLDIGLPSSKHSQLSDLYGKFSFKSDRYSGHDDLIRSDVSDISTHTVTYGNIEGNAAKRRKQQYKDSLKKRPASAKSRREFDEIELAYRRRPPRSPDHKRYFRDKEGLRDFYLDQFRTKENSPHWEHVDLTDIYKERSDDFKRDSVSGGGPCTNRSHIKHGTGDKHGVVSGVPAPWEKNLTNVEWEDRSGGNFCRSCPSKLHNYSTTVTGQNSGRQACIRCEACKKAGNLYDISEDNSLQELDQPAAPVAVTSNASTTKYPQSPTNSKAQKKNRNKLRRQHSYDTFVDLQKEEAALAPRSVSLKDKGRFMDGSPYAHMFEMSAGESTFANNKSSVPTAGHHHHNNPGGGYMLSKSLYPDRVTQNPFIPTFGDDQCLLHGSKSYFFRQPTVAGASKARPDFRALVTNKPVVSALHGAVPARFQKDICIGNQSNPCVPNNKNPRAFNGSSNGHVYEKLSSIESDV
The experiment in a line: Ion channel assay, NMDAR (1A/2B). It counts as cell-based.

Experiment [4] concerns the target NAV1.5 (tetrodotoxin-resistant voltage-gated sodium channel) (Homo sapiens, UniProt Q14524). The experiment in a line: cell-based.
Experiment [5] concerns the target Cannabinoid Receptor 2 (CNR2) (Homo sapiens, UniProt P34972). In words: cAMP assay, CNR2. It counts as cell-based.
Experiment [6] addresses T5, CGMP-inhibited cyclic nucleotide phosphodiesterase 3A (PDE3A) (Homo sapiens, UniProt Q14432).
T5 construct: purchased Signal Chem
In words: Enzymatic assay, PDE3A. It counts as biochemical.

For experiment [7], the target named is T6, Cholecystokinin Receptor A (CCKAR) (Homo sapiens, UniProt P32238).
T6 sequence (P32238 1-428): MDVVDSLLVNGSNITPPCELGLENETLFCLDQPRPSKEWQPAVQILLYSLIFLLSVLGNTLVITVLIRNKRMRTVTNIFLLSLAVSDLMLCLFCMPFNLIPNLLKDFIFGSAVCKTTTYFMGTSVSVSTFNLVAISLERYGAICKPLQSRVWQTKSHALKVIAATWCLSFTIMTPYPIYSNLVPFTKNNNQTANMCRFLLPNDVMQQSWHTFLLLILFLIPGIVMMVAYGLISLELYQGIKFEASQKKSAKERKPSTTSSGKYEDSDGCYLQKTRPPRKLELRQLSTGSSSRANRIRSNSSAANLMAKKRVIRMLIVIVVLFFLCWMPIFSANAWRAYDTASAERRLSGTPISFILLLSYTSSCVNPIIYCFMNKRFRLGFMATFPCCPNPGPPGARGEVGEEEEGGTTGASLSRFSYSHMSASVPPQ
In words: Calcium flux assay, CCKAR. It counts as cell-based. (A change in cytosolic calcium serves as a functional read-out for many receptors and channels.)

Experiment [8] addresses Dopamine Receptor D1 (DRD1) (Homo sapiens, UniProt P21728). In words: cAMP assay, DRD1. It counts as cell-based.
Experiment [9] concerns the target T7, 5-Hydroxytryptamine (Serotonin) Receptor 3A (5-HT3A) (Homo sapiens, UniProt P46098).
T7 sequence (P46098 24-478): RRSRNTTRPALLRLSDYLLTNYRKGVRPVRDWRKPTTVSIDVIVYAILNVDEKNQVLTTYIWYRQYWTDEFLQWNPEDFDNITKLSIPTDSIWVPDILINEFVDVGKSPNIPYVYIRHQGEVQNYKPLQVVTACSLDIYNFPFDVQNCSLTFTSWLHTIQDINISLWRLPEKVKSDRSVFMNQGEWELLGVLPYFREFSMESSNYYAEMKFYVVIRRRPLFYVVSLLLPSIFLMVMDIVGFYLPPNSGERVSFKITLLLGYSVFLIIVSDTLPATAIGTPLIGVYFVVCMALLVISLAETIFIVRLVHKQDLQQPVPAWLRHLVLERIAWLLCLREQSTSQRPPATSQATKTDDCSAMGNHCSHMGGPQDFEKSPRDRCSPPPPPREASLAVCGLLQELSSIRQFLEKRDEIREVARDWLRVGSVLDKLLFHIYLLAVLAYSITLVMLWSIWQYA
In words: Ion channel assay, 5-HT3A. It counts as cell-based.

SMILES strings stand for the structures. Counter-ions that a name gives are not always drawn.

Dopamine Receptor D1 (DRD1), sequence (P21728 whole entry): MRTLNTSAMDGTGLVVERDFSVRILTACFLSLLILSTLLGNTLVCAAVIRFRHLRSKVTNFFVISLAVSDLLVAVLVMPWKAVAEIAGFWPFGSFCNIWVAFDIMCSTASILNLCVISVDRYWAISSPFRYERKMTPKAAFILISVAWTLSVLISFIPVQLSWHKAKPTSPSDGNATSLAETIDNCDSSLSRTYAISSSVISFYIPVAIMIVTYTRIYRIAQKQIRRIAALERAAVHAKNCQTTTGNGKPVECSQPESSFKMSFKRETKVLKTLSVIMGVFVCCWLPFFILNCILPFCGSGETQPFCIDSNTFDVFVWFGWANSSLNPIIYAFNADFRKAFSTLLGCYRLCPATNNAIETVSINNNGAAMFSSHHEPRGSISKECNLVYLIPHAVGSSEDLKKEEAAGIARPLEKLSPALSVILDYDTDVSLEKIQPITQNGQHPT
T5 sequence (Q14432 whole entry): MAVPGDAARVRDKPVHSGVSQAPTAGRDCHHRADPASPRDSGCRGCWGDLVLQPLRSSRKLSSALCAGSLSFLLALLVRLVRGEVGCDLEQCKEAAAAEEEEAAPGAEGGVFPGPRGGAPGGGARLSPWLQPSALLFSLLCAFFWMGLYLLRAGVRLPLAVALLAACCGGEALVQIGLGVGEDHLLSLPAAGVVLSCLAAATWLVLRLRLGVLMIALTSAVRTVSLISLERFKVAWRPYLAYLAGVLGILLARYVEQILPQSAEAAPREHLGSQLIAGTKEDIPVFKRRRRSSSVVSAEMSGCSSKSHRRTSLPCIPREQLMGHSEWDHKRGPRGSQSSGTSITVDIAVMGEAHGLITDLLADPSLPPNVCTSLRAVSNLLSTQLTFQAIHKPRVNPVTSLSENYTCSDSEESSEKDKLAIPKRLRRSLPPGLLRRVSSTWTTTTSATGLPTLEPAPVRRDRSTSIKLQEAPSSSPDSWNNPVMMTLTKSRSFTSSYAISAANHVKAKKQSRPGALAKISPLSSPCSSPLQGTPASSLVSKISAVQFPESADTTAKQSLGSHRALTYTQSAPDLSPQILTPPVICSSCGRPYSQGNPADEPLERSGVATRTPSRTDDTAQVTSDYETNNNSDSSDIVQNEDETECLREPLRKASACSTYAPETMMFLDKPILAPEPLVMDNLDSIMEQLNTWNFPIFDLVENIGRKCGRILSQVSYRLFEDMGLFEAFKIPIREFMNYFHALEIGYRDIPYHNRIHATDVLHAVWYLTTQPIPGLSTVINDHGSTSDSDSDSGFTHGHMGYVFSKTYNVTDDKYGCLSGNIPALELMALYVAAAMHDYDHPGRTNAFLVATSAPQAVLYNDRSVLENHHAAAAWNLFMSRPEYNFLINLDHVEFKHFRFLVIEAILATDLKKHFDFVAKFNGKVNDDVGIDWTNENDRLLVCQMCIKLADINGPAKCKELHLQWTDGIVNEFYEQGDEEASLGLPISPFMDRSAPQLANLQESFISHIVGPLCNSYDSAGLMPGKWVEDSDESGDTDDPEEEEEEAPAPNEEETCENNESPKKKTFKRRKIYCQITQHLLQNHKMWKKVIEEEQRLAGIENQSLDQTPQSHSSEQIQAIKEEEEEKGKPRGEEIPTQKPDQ
T3 sequence (P23219 24-599): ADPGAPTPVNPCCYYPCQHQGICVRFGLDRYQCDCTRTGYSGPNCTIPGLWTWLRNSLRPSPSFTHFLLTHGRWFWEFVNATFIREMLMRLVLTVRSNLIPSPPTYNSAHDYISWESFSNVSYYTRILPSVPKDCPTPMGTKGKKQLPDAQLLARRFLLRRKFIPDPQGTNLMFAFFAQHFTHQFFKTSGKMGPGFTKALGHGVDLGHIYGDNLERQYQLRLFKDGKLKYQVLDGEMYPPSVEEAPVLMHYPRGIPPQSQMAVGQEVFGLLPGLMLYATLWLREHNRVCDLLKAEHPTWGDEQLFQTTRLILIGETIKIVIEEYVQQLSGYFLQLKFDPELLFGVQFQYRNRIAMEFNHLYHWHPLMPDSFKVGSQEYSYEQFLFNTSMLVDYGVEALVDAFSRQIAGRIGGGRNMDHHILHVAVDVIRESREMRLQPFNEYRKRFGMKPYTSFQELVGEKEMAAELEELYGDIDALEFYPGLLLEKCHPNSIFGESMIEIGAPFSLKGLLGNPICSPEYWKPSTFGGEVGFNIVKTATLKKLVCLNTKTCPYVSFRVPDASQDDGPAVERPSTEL
Cannabinoid Receptor 2 (CNR2), sequence (P34972 whole entry): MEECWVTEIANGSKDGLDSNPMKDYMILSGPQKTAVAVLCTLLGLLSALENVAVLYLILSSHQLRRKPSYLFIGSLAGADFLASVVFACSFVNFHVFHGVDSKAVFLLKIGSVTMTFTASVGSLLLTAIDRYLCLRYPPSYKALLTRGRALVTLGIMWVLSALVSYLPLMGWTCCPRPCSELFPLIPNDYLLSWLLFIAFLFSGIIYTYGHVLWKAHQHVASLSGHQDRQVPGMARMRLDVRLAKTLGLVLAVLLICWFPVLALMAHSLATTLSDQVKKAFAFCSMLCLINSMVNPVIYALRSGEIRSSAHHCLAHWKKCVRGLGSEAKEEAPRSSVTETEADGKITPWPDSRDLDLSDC

As a reminder, the EC50 is the concentration at which the effect is half-maximal. What is called IC50 is the midpoint of a concentration-inhibition curve. Take `CNC(C)C(=O)c1c[nH]c2ccc(Br)cc12` (stereo not drawn) [BK-5Br-NM-AMT, 1-(5-bromo-1H-indol-3-yl)-2-(methylamino) propan-1-one hydrochloride]: the EC50 in [1], in [2], in [3], in experiment [5], in [7] and in experiment [8] was above 10 µM in each case. The molecule further returned an EC50 in experiment [9] above 10 µM. Also, the IC50 (in experiment [1]; in experiment [2]; against Cyclooxygenase 1 (COX1); in experiment [3]; in experiment [4]; in experiment [5]) was above 10 µM throughout. Also, the IC50 in [6] is above 10 µM; in experiment [7], above 10 µM; in experiment [8], 9.7 µM; in [9] it was 673 nM. Also, the “Signal changes at the highest tested concentration” value (shortened to “Signal changes”) on human 5-HT2A is reported as −1.1 % of control.

Turning to `CNC(C)C(=O)c1c[nH]c2ccc(Cl)cc12` (stereo not drawn) [BK-5Cl-NM-AMT, 1-(5-chloro-1H-indol-3-yl)-2-(methylamino) propan-1-one hydrochloride], the concentration giving a half-maximal response (EC50) in [1], in experiment [2], in experiment [3], in [5], in experiment [7] and in [8] was above 10 µM each time. This molecule returned an EC50 in experiment [9] above 10 µM. Moreover, the IC50 (in [1]; in experiment [2]; against Cyclooxygenase 1 (COX1); in [3]; in experiment [4]; in experiment [5]) was above 10 µM in each case. The IC50 in experiment [6] was above 10 µM; in experiment [7], above 10 µM; in [8], above 10 µM; in experiment [9] it was 965 nM. At human 5-HT2A, the “Signal changes” value was 1.3 % of control.

As for `CNC(C)C(=O)c1c[nH]c2ccc(F)cc12` (stereo not drawn) [BK-5F-NM-AMT, 1-(5-Fluoro-1H-indol-3-yl)-2-(methylamino) propan-1-one hydrochloride], the concentration giving a half-maximal response (EC50) in experiment [1], in [2], in [3], in [5], in experiment [7] and in [8] was above 10 µM each time. The molecule further displayed an EC50 in experiment [9] above 10 µM. Besides, the 50% inhibitory concentration (IC50) (in experiment [1]; in experiment [2]; against Cyclooxygenase 1 (COX1); in experiment [3]; in experiment [4]; in experiment [5]) was above 10 µM throughout. For the same molecule, the IC50 in experiment [6] was above 10 µM; in [7], above 10 µM; in experiment [8] it was above 10 µM; in experiment [9] it was above 30000 nM. Also, the “Signal changes” value at human 5-HT2A is −0.8 % of control.
